From article PMC11724075, “Small-molecule-induced ERBB4 activation to treat heart failure” (Nature Communications, 2025)
Where “and” joins values, the source holds several entries; their conditions need not be identical. Equal entries are not always repeated.

Columns and labels:
[1] = system: Erbb4-null mice; assay: AngII-induced myocardial fibrosis in Erbb4-null mice, Masson's trichrome fibrosis; assay type: in vivo, mouse; set-up: Perivascular fibrosis: dose or concentration left out as unconfirmed
Procedure: Four weeks after implantation, cardiac ultrasound was performed, mice were euthanized, and hearts were collected. A similar set-up was used for the 1-week study (Alzet, model 1007D) in male mice (n = 9-10 mice in every group).
Floxed Erbb4 mice (Erbb4^f/f; C57BL/6N; 129-Erbb4tm1Fej/Mmucd, MMRRC, #010439-UCD) were crossed with CAGGCre-ER^TM mice (Jackson Laboratory, 004682) containing the Tg(CAG-cre/Esr1*)5Amc transgene that expresses Cre recombinase under the control of a chicken beta actin promoter/enhancer coupled to the human cytomegalovirus immediate-early gene enhancer, resulting in expression of tamoxifen-inducible Cre-ERT in most cell types. To induce Cre recombinase-mediated deletion of Erbb4, eleven-week-old female and male iCAGGCre-ER^TM/Erbb4^f/f mice were intraperitoneally injected with tamoxifen (Merck, T5648; 10 mg/kg; in corn oil) daily for 5 consecutive days.
Hearts were fixed in 4% PFA, paraffin-embedded, and cut into 5-µm sections. Images were acquired with an Olympus BX43 microscope (Olympus Stream Motion Software) or a CELENA® S Digital Imaging System and analyzed with ImageJ 2.14.0 software. Collagen distribution was visualized by Masson’s trichrome staining. Cardiac total fibrosis was expressed as the ratio of positively stained fibrotic area (blue) to the total area and perivascular fibrosis as the ratio of fibrotic area to vascular lumen area. Scar size was determined by measuring the scar length over the […]. Hypertrophy and vascularisation were visualized via an isolectin-B4/WGA/DAPI staining. Quantification was performed by a person blinded to the treatment protocol.

[2] = system: iAMs; assay: TUNEL assay in H2O2-treated iAMs; assay type: cell-based, rat; set-up: In vitro TUNEL assay: unit not given here
Procedure: To assess apoptosis, a TUNEL assay was performed using the In Situ Cell Death Detection Kit, Fluorescein (Merck, 11684795910) according to the manufacturer’s instructions. After the 4-h incubation, the cells were fixed with 4% paraformaldehyde for 15 min at room temperature, followed by permeabilization with 0.1% Triton X-100 in 0.1% sodium citrate for 2 min on ice. Cells were then incubated with the TUNEL reaction mixture in a humidified chamber at 37 °C for 1 h in the dark. After washing with PBS, the samples were analyzed using fluorescence microscopy to detect apoptotic cells. […]
1 on TUNEL staining (red).
positive cells (n=7 biological replicates in Veh group, n=9 biological replicates for H2O2/Veh group, n=11 […]

[3] = system: iAMs; assay: Bulk RNA sequencing of cardiomyogenically differentiated iAMs; assay type: cell-based, rat; settings: EF-1 32 µM, 16 h, log2-fold change ≥0.58, P adj <0.05
Procedure: iAMs were seeded at a density of 6 ×10^6 cells/mL in differentiation medium in 75-cm^2 cell culture flasks (Greiner Bio-One, 658175) and incubated for 9 days (d0 = day of seeding). HCF were seeded at a density of 3 × 10^6 cells/mL in fibroblast medium in 75-cm^2 cell culture flasks. […] Next, cells were lysed using 350 µL buffer RLT (Qiagen) supplemented with β-mercaptoethanol (100:1; Merck, 444203). Total RNA was isolated using the RNeasy Micro Kit (Qiagen, 74104) according to the manufacturer’s protocol, with an extra step of DNase digestion. The concentration and quality of RNA were determined using a Qubit fluorometer (Thermo Fisher Scientific) and 2100 Agilent BioAnalyzer (Agilent Technologies), respectively. Samples with an RNA integrity number >7 were used for library preparation. Sequencing libraries were prepared by Genewiz/Azenta (Leipzig) on cDNA prepared from polyadenylated mRNA. Libraries were sequenced using a NovaSeq 6000 (Illumina) with a read length of 2 ×150 bp.
Gene expression was quantified at the transcript level using Salmon (v1.10.0)[60], with the validatMappings and -gcBias parameters switched on, to the Rnor_6.0 or GRCh38 transcriptome. […] Functional enrichment of DEGs was determined using a hypergeometric test against the Gene Ontology database by using the ClueGO (v2.5.7)[64] module of Cytoscape (v3.9.1)[65] with Benjamini–Hochberg adjusted (FDR) P < 0.05. […]

[4] = system: iAMs; assay: WST-1 cell viability assay in H2O2-treated iAMs; assay type: cell-based, rat; set-up: In vitro cell viability assay with WST-1: unit not given here
Procedure: Following the transfer of 150 µL of culture medium for the ToxiLight assay, 7 µL of WST-1 reagent (Merck, 5015944001) was added directly to the remaining cell culture medium in each well. The cells were incubated at 37 °C for an additional 4 h. After incubation, the absorbance of the samples was measured at 450 nm (690 nm was used as reference wavelength and subtracted) using a microplate reader (Epoch). […]

[5] = H2O2/EF-1, individual replicates

## O=C(NC1CC1)C(Sc1nc2ccccc2c(=O)n1C1CCCC1)c1ccccc1 (stereo not drawn) [EF-1]
[1]; male+female Erbb4-null mice, AngII/EF-1, AngII 400 ng/kg/day, single animals
  Total fibrosis: 3.25 and 2.45 and 2.12 and 2.92 and 4.07
[1]; male+female Erbb4-null mice, AngII/EF-1, single animals
  Perivascular fibrosis: 0.6515 and 1.352 and 0.6814 and 0.7388 and 1.066
[1]; mouse, in vivo
  effect on AngII-induced interstitial or perivascular fibrosis in Erbb4-null mice (in words): did not significantly prevent interstitial or perivascular AngII-induced fibrosis
[2]; 100 µM H2O2
  number of TUNEL-positive (apoptotic) cells (in words): significantly reduced this number
[2]; [5]
  In vitro TUNEL assay: 23.25 and 37.594 and 36.981 and 17.145 and 24.708 and 40.03 and 14.87 and 23.901 and 20.679 and 24.2124 and 24.656
[3]
  number of significantly downregulated genes compared to Veh: 1120
  number of significantly upregulated genes compared to Veh: 354
[4]; 100 µM H2O2, pre-treatment with EF-1
  cell viability, WST-1 absorbance (in words): significantly increased cell viability
[4]; [5]
  In vitro cell viability assay with WST-1: 1.268 and 0.9224 and 0.7959 and 0.7633 and 0.6939 and 1.2898 and 0.9164 and 0.8058 and 0.7767 and 0.7185 and 1.306 and 0.9585 and 0.8456 and 0.8168 and 0.7703 and 1.242 and 0.9643 and 0.8304 and 0.8393 and 0.7321
